Measurements reported in patent US4183935A, “Bispidine derivatives, their preparation, and drugs containing same” (priority 1977, dated 1980).
Structures can show the parent of a compound that is named as a salt. Where two headings read alike, the source gives them in different places.

Assays:
Format in all cases: in vivo, rats (Sprague Dawley)
[1] = toxic effect: dose at which first toxic symptoms such as cyanosis or changes in ECG occur; details: for Toxic effect: Dose (dose producing a toxic effect): first toxic symptoms such as cyanosis or changes in ECG; for selectivity ratio: rat, in vivo, po
Method: (§1) To determine their anti-arrhythmic activity, the substances were administered orally to rats (Sprague Dawley, weight 200-250 g) 45 minutes before starting a thiobutabarbital narcosis (100 mg/kg administered intraperitoneally). Aconitine was used to produce arrhythmias, and was infused intravenously 60 minutes after administration of the active substance (dosage rate 0.005 mg/kg per minute). In the untreated animals, arrhythmias manifest themselves after an average of 3.32 minutes, and their occurrence can be delayed by anti-arrhythmic agents, the delay being dependent on the dose. The ED50% is the does which increases by 50% the duration of infusion up to the occurrence of arrhythmias. R.E. is the relative effect, based on quinidine.ident.1.00. The maximum effect is that achieved by administering the maximum tolerated dose. .increment.% indicates the percentage by which the duration of the aconitine infusion can be increased. R.M.E. is the relative maximum effectiveness, based on quinidine.ident.1.00. The dose producing a toxic effect indicates the amount (in mg/kg) at which the first toxic symptoms such as cyanosis or changes in ECG occur. Q is the quotient of the toxic dose and the ED50%.

in vivo = details: in vivo; rat, oral; dose at which the maximum effect is achieved; read-out: Maximum effect: Dose (maximum tolerated dose)
Method: as §1

[2] = system: arrhythmias produced by aconitine; test: animal or person; details: for ED50: Rattus norvegicus, po, read-out: Effective dose ED50% (dose which increases by 50% the duration of infusion up to the occurrence of arrhythmias); for R.E. (relative effect, based on quinidine = 1.00): from ED50%; for R.M.E. (relative maximum effectiveness, based on quinidine = 1.00): from maximum effect; for Maximum effect: Δ% (percentage by which the duration of the aconitine infusion can be increased): rat, oral, at the maximum tolerated dose
Method: as §1

[3] = toxic dose / ED50%, read-out: Q (quotient of the toxic dose and the ED50%)

Row | SMILES | Toxic effect: Dose (dose producing a toxic effect) [1] | selectivity ratio [1, 3] | MTD (in vivo) | ED50 [2] | R.E. (relative effect, based on quinidine = 1.00) [2] | R.M.E. (relative maximum effectiveness, based on quinidine = 1.00) [2] | Maximum effect: Δ% (percentage by which the duration of the aconitine infusion can be increased) [2] | selectivity ratio [1]
1 | c1ccc(CN2CC3CC(C2)CN(C(c2ccccc2)c2ccccc2)C3)cc1 [C6 H5 H H 0, N-Benzyl-N'-benzhydryl-bispidine fumarate] | 464 mg/kg | 22.8 | 215 mg/kg | 20.4 mg/kg | 2.09 | 1.54 | 205% | –
2 | c1ccc(CN2CC3CC(C2)CN(CC(c2ccccc2)c2ccccc2)C3)cc1 [C6 H5 H H 1, N-benzyl-N'-2,2-diphenylethylbispidine fumarate x H2 O] | 100 mg/kg | 7.7 | 46.4 mg/kg | 13 mg/kg | 3.28 | 1.53 | 203% | –
3 | FC(F)(F)c1cccc(CN2CC3CC(CN(Cc4ccccc4)C3)C2)c1 [H CF3 H 0, N-Benzyl-N'-(3-trifluoromethylbenzyl)-bispidine fumarate] | 215 mg/kg | – | 100 mg/kg | 25.4 mg/kg | 1.68 | 1.82 | 242% | –
4 | Clc1ccc(CN2CC3CC(CN(Cc4ccccc4)C3)C2)cc1Cl [H Cl Cl 0, N-Benzyl-N'-(3,4-dichlorobenzyl)-bispidine fumarate] | 464 mg/kg | 29.7 | 215 mg/kg | 15.6 mg/kg | 2.74 | 2.13 | 283% | –
5 | Clc1cccc(CN2CC3CC(CN(Cc4ccccc4)C3)C2)c1 [H Cl H 0, N-benzyl-N'-(3-chlorobenzyl)-bispidine fumarate] | 100 mg/kg | 6 | 46.4 mg/kg | 16.6 mg/kg | 2.57 | 0.92 | 123% | –
6 | Fc1ccc(CN2CC3CC(CN(Cc4ccccc4)C3)C2)cc1 [H H F 0, N-Benzyl-N'-(4-fluorobenzyl)-bispidine fumarate] | 215 mg/kg | 10.6 | 100 mg/kg | 20.2 mg/kg | 2.11 | 1.80 | 240% | –
7 | C=C[C@H]1C[N@@]2CC[C@H]1C[C@@H]2[C@@H](O)c1ccnc2ccc(OC)cc12 [Quinidine, reference compound] | 464 mg/kg | – | 215 mg/kg | 42.7 mg/kg | 1.00 | 1.00 | 133% | 10.9
